One assay has as its system MMTV-Prune1/Wnt1 cells. Briefly: Real-time cell proliferation assay (cell index, xCELLigence). Format: cell-based, murine. The settings on record: 10 µM and 100 µM, dose dependent. As for the experimental part:
D425.MED and MMTV-Prune1/Wnt1 cells were plated and treated with increasing concentrations of LEO-AA7.5(S)T for 24 hours. Water-treated cells were used as negative control for the experiments.
Cellular proliferation rates were determined with the xCELLigence system (Roche). D425-MED, MATH-Prune1/TP53-/- and MMTV-Prune1/Wnt1 cells (8 × 10^3) were treated with increasing concentrations of LEO-AA7.5(S)T, harvested, and then added to a single well of an xCELLigence E-plate 16. The proliferation rates were determined at 2-min intervals by measuring the impedance changes across the electrodes at the bottoms of the wells. These cell index values were calculated by the xCELLigence RTCA software. with vehicle-treated cells were the negative control. Impedance was measured every 2 min over 24 hours. The IC50 values were calculated through nonlinear regression analysis performed with Graph Pad Prism 9 ([inhibitor] vs. response (three parameters). Data are means ± SD of three independent experiments.

For assay [1], the system named is inflammatory cytokines targeted by IMIDs drugs. Put plainly: qPCR of inflammatory cytokines in MATH1-Prune1/TP53-/- cells. It is filed as cell-based, murine. The settings on record: 10 µM, 24 hours. As for the experimental part:
RNA samples were extracted using TRIzol RNA Isolation Reagent (15596026, Invitrogen), according to the manufacturer instructions. Reverse transcription was performed with 5× All-In-One RT MasterMix (g592; ABM), according to the manufacturer instructions. The reverse transcription products (cDNA) were amplified by qRT-PCR using an RT-PCR system (7900; Applied Biosystems, Foster City, CA, USA). The cDNA preparation was through the cycling method, by incubating the complete reaction mix as follows: cDNA reactions: (37 °C for 10 min and 60 °C for 15 min); Heat-inactivation: 95 °C for 3 min; Hold stage: 4 °C. The targets were detected with the SYBR green approach, using BrightGreen BlasTaq 2× PCR MasterMix (G895; ABM). Human ACTB was used as the housekeeping gene to normalize the quantification cycle (Cq) values of the other genes. These runs were performed on a PCR machine (Quantstudio5, Lifetechnologies) with the following thermal protocol: Hold stage: 50 °C for 2 min; Denaturation Step: 95 °C for 10 min; Denaturation and annealing (×45 cycles): 95 °C for 15 s and 60 °C for 60 s; Melt curve stage: 95 °C for 15 s, 60 °C for 1 min, and 95 °C for 15 s. Relative expression of the target genes was determined using the 2^-ΔΔCq method, as the fold increase compared with the controls. The data are presented as means ±SD of the 2^-ΔΔCq values (normalized to human ACTB) of three replicates.

A further assay has as its system MATH1-Prune1/ TP53-/-. Put plainly: Orthotopic implantation of MATH1-Prune1/TP53-/- cells in immunocompetent syngeneic mice, tumor growth. Format: in vivo, FVB WT mice. Particulars: for intracranial tumor growth (bioluminescence, photon emission) / BLI signal from the spinal cord (metastasis): 6 mg/kg/day intraperitoneally for 7 days, T17, HCl salt; for BLI signal from the spinal cord (metastasis): ex vivo. As for the experimental part:
MATH1-Prune1/ TP53-/- were implanted into the right cerebellar hemisphere of female (n.10) immunocompetent syngeneic mice model (5 weeks old, strain: FVB WT) to establish intracerebellar MATH1-Prune1/ TP53-/- models. Mice were anaesthetised with Ketamine/ Xylazine (87.5 mg/kg, 12.5 mg/kg, respectively). The mice were then placed in a stereotactic frame by hooking their incisors onto the frame hold. A small skin incision (length, 1 mm) and a burr hole (diameter, 0.7 mm) were created using a microsurgical drill (Fine Science Tools, Foster City, CA, USA of MATH1-Prune1/ TP53-/- (1.5 ×10^5) were resuspended in 10 µL PBS and injected slowly through the burr hole into the right cerebellar hemisphere (stereotactic coordinates from Bregma: anteroposterior, 5.5 mm; right lateral, 2.1 mm; dorsoventral 5.0 mm), with a steady force over 30 s, using a 10-AL, 26-gauge Hamilton Gastight model 1701RN syringe needle (SigmaAldrich) that was inserted perpendicular to the cranial surface. The incision was sutured using Safil polyglycolic acid synthetic absorbable suture (6/0). The mice were kept on a warming blanket after the surgery, to help them to maintain their body temperature. Their mobility and respiratory patterns were observed continuously, and once the mice had recovered from the anaesthesia; they were place in a sterile housing cage. The mice were monitored daily for development of potential neurological deficits. 10 days after the implantation of the cells, the mice were imaged, and tumour growth was evaluated by bioluminescence acquisition using an imaging system (IVIS 3D Illumina; Xenogen/ Caliper). For the acquisitions, the mice were anaesthetised by inhalational of isoflurane, and the D-luciferin (122799; PerkinElmer) (15 mg/mL stock) was injected intraperitoneally (100 µL per 10 g body weight). At 5 min from the luciferin injection, the mice were imaged for 3 min. To quantify the bioluminescence, the integrated fluxes of photons (p/s) within each area of interest were determined using the Living Images Software Package 3.2 (Xenogen-Perkin Elmer). […] After 17 days from tumour implantation (i.e., after one weeks of LEO-AA7.5(S)T treatment), the mice were sacrificed, and the organs were collected for immunohistochemistry and immunofluorescence analyses.
Paraffin sections of the tumor specimens (thickness, 3 µm) were deparaffinised and rehydrated by immersing the slides in Xylene Substitute (A5597; Sigma), as three washes for 5 min each, then serially in 100%, 95%, 70%, 50%, and 30% ethanol (two washes for 10 min, for each), and deionised water (two washes, for 5 min each). The washes were then followed by PBS, PBS containing 0.02% Triton-X 100 (215680010; Acros Organics), and PBS (two washes for 5 min, for each). For antigen retrieval, the slides were immersed in boiling 10 mM sodium citrate buffer (pH 6.0) using a microwave oven, and then maintained at sub-boiling temperature for 10 min. The slides were left to cool at room temperature for 30 min. The sections were then washed by immersion in distilled water for 5 min. To block endogenous peroxidase activity, the tissue sections were placed in a solution with 3.0% hydrogen peroxide in methanol for 15 min. Then, to decrease the nonspecific background fluorescence, the tissues were digested by treating them with a solution containing 0.2% trypsin (T2600000; Sigma-Aldrich) and 0.001% CaCl2 for 10 min at 37 °C, in a humidified chamber. The slides were then washed in PBS, PBS containing 0.02% Triton-X 100 (215680010; Acros Organics), and PBS (two washes for 5 min, for each). The tissue sections were blocked with 6% bovine serum albumin (A9418; Sigma), 5% fetal bovine serum (ECS0180L; Euroclone), and 20 mM MgCl2 in PBS containing 0.02% Triton-X 100, for 1 h at room temperature, and incubated overnight with the primary antibodies at 4 °C in a humidified chamber. […]

Where [2] appears, read: listed as (S)-(1-(4-((4-methoxybenzyl)amino)-1,3,5-triazin-2-yl)piperidin-3-yl)methanol HC.

Entries after “also recorded” stand apart in the source; their conditions may differ.

As to `COc1ccc(CNc2ncnc(N3CCC[C@H](CO)C3)n2)cc1.Cl` [LEO-AA7.5(S)T, (S)-(1-(4-((4-methoxybenzyl)amino)-1,3,5-triazin-2-yl)piperidin-3-yl)methanol HCl salt], the proliferation rate result in the assay with MMTV-Prune1/Wnt1 cells is given as “reduction”. Moreover, the “levels of inflammatory cytokines targeted by IMIDs drugs (qPCR)” value in assay [1] was “decreased levels”. In addition, in the assay on MATH1-Prune1/ TP53-/-, the “intracranial tumor growth (bioluminescence, photon emission)” value is reported as “impairment of tumour growth” and the “BLI signal from the spinal cord (metastasis)” value is recorded as “decrease of metastasis”. Further, in the assay on MATH1-Prune1/ TP53-/- (setting [2]), the “intracranial tumor growth (bioluminescence, photon emission)” value is on record as “significantly decreased; also recorded: anti-tumorigenic action” and the “BLI signal from the spinal cord (metastasis)” value is “decreased intensity of BLI signal”. For the same compound, the “immunosuppressive T cells (CD4+PD1+FOXP3+ and CD8+PD1+FOXP3+) in the tumor microenvironment” value with MATH1-Prune1/ TP53-/- (6 mg/kg/day, immunofluorescence of cerebellar tumor sections) is “reduced”.
